The subject of data set [1] is Tubulin, derived from pig brain. The note with it: for effect on the polymerization of tubulin (in words): increase in the latent period, decrease in the rate of polymerization, lower turbidity in the stationary state; for IC50: read-out: concentration which inhibits by 50% the polymerization of tubulin, tubulin 8.5 μM, 37° C., 30 minutes, product 0.8 to 16 μM. From the text: The assembly of tubulin into microtubules results in an increase in the turbidity observed at 350 nm with the aid of spectrophotometer.

For data set [2], the system named is murine leukaemia cell lines P388. The note with it: p388 leukaemia cells.
In data set [3] the test system is resistant lines P388/DOX. The conditions noted are these: p388 leukaemia cells.

SMILES strings stand for the structures. Where two headings read alike, the source gives them in different places.

In the case of `C=CC1CC(Cc2ccc(OC)c(O)c2)C2C(=O)C=CC(=C)C12` (stereo not drawn) [formula (I), 3-(3-hydroxy-4-methoxybenzyl)-7-methylene-1-vinyl-2,3,3a,4,7,7a-hexahydroinden-4-one], in data set [1], the “effect on the polymerization of tubulin (in words)” value was “inhibition of the polymerization of tubulin” and the IC50 is under 5 nM. The IC50 in data set [1] (listed as 3-(3-hydroxy-4-methoxybenzyl)-7-methylene-1-vinyl-2,3,3a,4,7,7a-hexahydroinden-4) was under 1 nM.
With `C=CC1CC(Cc2ccc(OC)c(O)c2)c2c(O)ccc(C)c21` (stereo not drawn) [formula (II), 3-(3-hydroxy-4-methoxybenzyl)-4-hydroxy-7-methyl-1-vinylindan], the “effect on the polymerization of tubulin (in words)” value in data set [1] was “inhibition of the polymerization of tubulin”. In addition, the cytotoxicity result in data set [2] and in data set [3] was “less than 1 μg/cm^3” in each case.

Values taken from US5716994A, “Antitumor and antileukaemic substances, their preparation and pharmaceutical compositions containing them” (Rhone-Poulenc Rorer S.A., priority 1994, dated 1998).
